# From patent publication US11542311B2, “Fusion protein, preparation method therefor and application thereof in preparing ophthalmic disease treatment, anti-inflammation and anti-tumor medicament” (JIANGSU RONGTAI BIOTECH CO., LTD., priority 2017, dated 2023)
# Assays:
# human glioma U87 = experiment: MTT assay, proliferation of human glioma U87; assay type: cell-based; settings: 5 μg/mL, 48 h
# Experimental: (§1) The MTT assay was used to detect the inhibitory effect of the integrin blocker fusion protein obtained in Example 1 on the proliferation of various tumor cells, including melanoma cell B16F10, gastric cancer cell MGC-803, lung cancer cell A549, liver cancer cell Hep-G2, breast cancer cell MDA-MB-231, colon cancer cell HCT-116, human glioma U87, and cervical cancer cell Hela.
# (§2) The tumor cells were cultured in a 5% CO2 incubator at 37° C. to a density of 90% or more, and collected by trypsinization. The cells were resuspended in the culture liquid and counted under a microscope. The cell concentration was adjusted to 3.0×10^4 cells/mL. The cell suspension was inoculated into a 96-well plate, 100 μL per well, and cultured overnight in a 5% CO2 incubator at 37° C. The fusion proteins I, II, and the positive drug Taxol were diluted with the culture liquid to respective predetermined concentrations. After the cells were fully adhered, each dilution was added to a 96-well plate, 100 μL per well, respectively. […] The absorbance was measured at 570 nm with a microplate reader with a reference wavelength of 630 nm, and the proliferation inhibition (PI) was calculated. […]
# (§3) The test was repeated 5 times independently. The results obtained from the test were calculated as mean±SD, and statistical t-test was performed. […]
# liver cancer cell Hep-G2 = experiment: MTT assay, proliferation of liver cancer cell Hep-G2; assay type: cell-based; settings: 5 μg/mL, 48 h
# Experimental: as §1, §2, §3
# [1] = test system: cervical cancer cell Hela; experiment: MTT assay, proliferation of cervical cancer cell Hela; assay type: cell-based; settings: 5 μg/mL, 48 h
# Experimental: as §1, §2, §3
# [2] = test system: gastric cancer cell MGC-803; experiment: MTT assay, proliferation of gastric cancer cell MGC-803; assay type: cell-based; settings: 5 μg/mL, 48 h
# Experimental: as §1, §2, §3
# [3] = test system: colon cancer cell HCT-116; experiment: MTT assay, proliferation of colon cancer cell HCT-116; assay type: cell-based; settings: 5 μg/mL, 48 h
# Experimental: as §1, §2, §3
# melanoma cell B16F10 = experiment: MTT assay, proliferation of melanoma cell B16F10; assay type: cell-based; settings: 5 μg/mL, 48 h
# Experimental: as §1, §2, §3
# lung cancer cell A549 = experiment: MTT assay, proliferation of lung cancer cell A549; assay type: cell-based; settings: 5 μg/mL, 48 h
# Experimental: as §1, §2, §3
# [4] = test system: breast cancer cell MDA-MB-231; experiment: MTT assay, proliferation of breast cancer cell MDA-MB-231; assay type: cell-based; settings: 5 μg/mL, 48 h
# Experimental: as §1, §2, §3
# [5] = test system: Human umbilical vein endothelial cells (HUVECs); experiment: Three-dimensional transwell assay, migration of HUVEC; assay type: cell-based; settings: 8.0 · 10^−6 μg/mL, 24 h
# Experimental: (1) 10 mg/mL Matrigel (a basement membrane matrix secreted by Engelbreth-Holm-Swarm (EHS) mouse sarcoma cells) diluted with a DMEM medium (Dulbecco's Modified Eagle Medium) at a ratio of 1:4, coated on a transwell chamber membrane, and air-dried at room temperature;
# (2) HUVEC cells cultured to logarithmic phase were digested with 0.2% EDTA, collected, washed twice with PBS, followed by resuspended in an endothelial cell culture liquid containing 0.1% BSA, and counted under a microscope, and the cell concentration was adjusted to 1×10^5 cells/mL;
# (3) Test solutions for each group were formulated and diluted to 100 μL with a cell culture liquid containing 0.1% BSA;
# (4) The cells were inoculated into a transwell chamber, 100 μL per well, and test solutions for each group were added to the chamber. To a 24-well plate, 0.6 mL of endothelial cell culture liquid containing 5% fetal bovine serum and 1×ECGS was added to stimulate cell migration, and incubated at 5% CO2 at 37° C. for 24 h;
# (5) The culture liquid in the well was discarded. […] The migration inhibition (MI) was calculated according to the formula: […]
# The test was repeated 3 times independently. The results obtained from the test were calculated as mean±SD, and statistical t-test was performed. […]
# [6] = test system: adjuvant arthritis in rat; experiment: Chronic inflammation of adjuvant arthritis in rat; assay type: in vivo, SD rats; settings: 1 mg/kg once every 5 days for 15 days
# Experimental: 80 SPF SD rats were randomly divided into 8 groups. Rats in each group were lightly anesthetized with ether. Then, 0.1 mL of complete Freund's adjuvant containing inactivated Mycobacterium tuberculosis was injected subcutaneously into the left hind foot of the rats. Primary arthritis occurred in the left hind foot of the rat, and at about 13 days post-modeling, secondary arthritis occurred in the right hind foot. A blank control group was injected with an equal volume of physiological saline. The drug was administered 13 days after modeling.
# Using a foot volume measuring method, a marker was made with a fat-soluble marker at the left and right posterior ankle joints of each rat, and the left and right hind feet of the animal were respectively immersed in the volume measuring device. The immersion depth was bounded by the marker, and the reading value at the scale pipette of the device was the initial volume of the animal's left and right hind feet.
# The day of modeling was considered as the 0th day and recorded as d0. The volume of the left hind foot (modeling foot) was measured from the first day dl after modeling every 2 days. When the swelling occurred (i.e., secondary arthritis occurred) at the contralateral non-inflammatory foot (right hind foot), the administration was started. The volume of the left and right hind feet was measured once every 2 days, and the degree of primary and secondary toe swelling was determined, which was calculated as follows: Primary toe swelling (mL)=left hind foot volume on the day of measurement−initial volume of left hind foot Secondary toe swelling (mL)=right hind foot volume on the day of measurement−initial volume of right hind foot
# Systemic score: the systemic score was taken every 2 days after the onset of secondary inflammation.
# Hind foot: no swelling=0 score, one hind foot swelling=1 score, two hind feet swelling=2 scores;
# Forefoot: no swelling=0 score, one forefoot swelling=1 score, two forefeet swelling=2 scores;
# Ears: no redness and nodules=0 score, redness or nodules in one ear=1 score, redness and nodules in both ears=2 scores;
# Nose: no swelling=0 score, obvious swelling=1 score;
# Tail: no nodules=0 score, nodules=1 score; full score was 8 scores.
# Arthritis index score: the arthritis index score was performed every 2 days after the onset of secondary inflammation.
# The initial body weight of each group of rats was weighed before modeling. The body weight was measured every 2 days from dl after modeling, from which the initial body weight was subtracted to obtain the weight gain of each group of rats.
# [7] = test system: xylene-induced ear swelling in mice; experiment: Xylene-induced ear swelling in mice; assay type: in vivo, Kunming mice; settings: 200 mg/kg
# Experimental: 80 Kunming mice were divided into 8 groups with 10 mice for each group and numbered. A physiological saline group was used as a blank control group, an aspirin group (200 mg/kg) was used as a positive control group, and fusion proteins I and II at high, medium and low doses (128, 32, 8 mg/kg) was used as the experimental groups. Mice were administered once by injection every 5 days. The blank control group was given an equal volume of physiological saline. On the fifth day after the administration, 0.05 mL of xylene was applied to both sides of the right ears of the mice to induce inflammation, and the left ears were not applied and were normal ears. After 2 h, the mice were sacrificed by dislocation, and the ears were cut along the auricle. Ear pieces were taken with a puncher and weighed, and the swelling degree and swelling rate were calculated. Swelling degree=right ear piece weight-left ear piece weight, swelling rate=(swelling degree/left ear piece weight)×100%.
smiles,measurement,setting,value
"CC(=O)O[C@H]1C(=O)[C@@]2(C)[C@H]([C@H](OC(=O)c3ccccc3)[C@]3(O)C[C@H](OC(=O)[C@H](O)[C@@H](NC(=O)c4ccccc4)c4ccccc4)C(C)=C1C3(C)C)[C@]1(OC(C)=O)CO[C@@H]1C[C@@H]2O [Taxol, reference compound]",A570 nm/A630 nm,human glioma U87,0.1825 ± 0.0163
same,PI (%),human glioma U87,76.38%
same,A570 nm/A630 nm,liver cancer cell Hep-G2,0.4257 ± 0.0099
same,PI (%),liver cancer cell Hep-G2,58.55%
same,A570 nm/A630 nm,[1],0.2078 ± 0.0162
same,PI (%),[1],83.75%
same,A570 nm/A630 nm,[2],0.4146 ± 0.0186
same,PI (%),[2],56.60%
same,A570 nm/A630 nm,[3],0.2098 ± 0.0164
same,PI (%),[3],69.16%
same,A570 nm/A630 nm,melanoma cell B16F10,0.6011 ± 0.0144
same,PI (%),melanoma cell B16F10,52.13%
same,A570 nm/A630 nm,lung cancer cell A549,0.3226 ± 0.0309
same,PI (%),lung cancer cell A549,52.17%
same,A570 nm/A630 nm,[4],0.4071 ± 0.0301
same,PI (%),[4],52.83%
"CCN(CC)CCNC(=O)c1c(C)[nH]c(/C=C2\C(=O)Nc3ccc(F)cc32)c1C [Sunitinib, reference compound]",MI (%),[5],82.31%
same,Migration cell number,[5],441.0 ± 150.58
"CN(Cc1cnc2nc(N)nc(N)c2n1)c1ccc(C(=O)N[C@@H](CCC(=O)O)C(=O)O)cc1 [Methotrexate, methotrexate, reference compound]",Clinical score Arthritis index,[6],2.96 ± 0.57
same,Clinical score Whole body,[6],1.34 ± 0.19
same,Foot swelling degree (mL) Left,[6],1.22 ± 0.21 mL
same,Foot swelling degree (mL) Right,[6],1.25 ± 0.13 mL
same,Weight gain,[6],47.35 ± 17.40 g
"CC(=O)Oc1ccccc1C(=O)O [Aspirin, aspirin, reference compound]",PI (%),"[7]; ear swelling, mice",53.15%
same,Swelling degree,"[7]; mouse ear, 2 h after xylene",3.12 ± 0.61 mg
